These results are taken from US12098145B2 (Libra Therapeutics, Inc., priority 2022, dated 2024).

T1 sequence (Q9GZU1 whole entry): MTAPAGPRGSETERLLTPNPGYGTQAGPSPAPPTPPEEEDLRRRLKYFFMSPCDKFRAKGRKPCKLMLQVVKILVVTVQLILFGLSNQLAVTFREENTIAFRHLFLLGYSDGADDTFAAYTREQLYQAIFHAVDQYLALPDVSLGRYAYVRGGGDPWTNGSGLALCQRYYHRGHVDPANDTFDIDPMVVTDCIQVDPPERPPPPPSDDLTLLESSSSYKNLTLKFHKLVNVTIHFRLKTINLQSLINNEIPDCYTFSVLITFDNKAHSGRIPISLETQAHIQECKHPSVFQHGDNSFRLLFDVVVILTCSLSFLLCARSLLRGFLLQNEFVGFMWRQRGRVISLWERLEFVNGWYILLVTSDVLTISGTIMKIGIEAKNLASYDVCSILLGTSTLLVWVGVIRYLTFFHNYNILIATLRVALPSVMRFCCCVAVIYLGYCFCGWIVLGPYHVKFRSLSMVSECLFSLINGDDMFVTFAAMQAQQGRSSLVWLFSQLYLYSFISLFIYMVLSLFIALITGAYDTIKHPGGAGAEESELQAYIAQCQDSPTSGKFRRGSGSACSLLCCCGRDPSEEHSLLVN

One experiment has as its target T1, TRPML1 (Homo sapiens, UniProt Q9GZU1).
T1 construct: expressed in transfected cells; host or cells: HEK T-REx cells stably expressing GCaMP6f and TRPML1
As to the kind of experiment: Cellular TRPML1 assay (FLIPR, GCaMP6f calcium read-out). The class given is cell-based.
Conditions: not given
The method, boiled down: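 Read-out is GCaMP6f fluorescence over 300 s after compound addition in Ca2+-free Tyrode's buffer, final DMSO 0.5%, on FLIPR Tetra. Cells are HEK T-REx stably co-expressing the indicator and TRPML1, plated 24 h earlier in Optimem + 0.5% FBS and pre-incubated ~10 min at room temperature.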
As for `O=C(Nc1cc(F)c(N2CC3CC(C3)C2)c(F)c1)c1nc(N2CCC3(COC3)C2)oc1CC(F)(F)F` [Example 208, N-(4-(3-azabicyclo[3.1.1]heptan-3-yl)-3,5-difluorophenyl)-2-(2-oxa-6-azaspiro[3.4]octan-6-yl)-5-(2,2,2-trifluoroethyl)oxazole-4-carboxamide], the EC50 was in the range of 10 to 1000 nM. The same measure, in the same setting: next, `O=C(Nc1cc(F)c(N2CC3CC(C3)C2)c(F)c1)c1nc(N2CCCC2)oc1CC(F)(F)F` [Example 209, N-(4-(3-azabicyclo[3.1.1]heptan-3-yl)-3,5-difluorophenyl)-2-(pyrrolidin-1-yl)-5-(2,2,2-trifluoroethyl)oxazole-4-carboxamide]: 10 to 1000 nM. As to `O=C(Nc1cc(F)c(N2C3CCCC2CC3)c(F)c1)c1nc(N2CCCC2)oc1CC(F)(F)F` [Example 210, N-(4-(8-azabicyclo[3.2.1]octan-8-yl)-3,5-difluorophenyl)-2-(pyrrolidin-1-yl)-5-(2,2,2-trifluoroethyl)oxazole-4-carboxamide], the EC50 was 10 to 1000 nM.

Still in this experiment, the particulars now being: HEKT-REx/GCaMP6f/TRPML1 cells, FLIPR TETRA, kinetic response over 300 seconds; read-out: TRPML1 FLIPR pEC50 (converted).
`CCC1(CC)CN(c2nc(C(=O)Nc3cc(C)c(NC4CC5CC(C5)C4)c(F)c3)c(CC(F)(F)F)o2)C1` (stereo not drawn) [Example 192, N-(4-(bicyclo[3.1.1]heptan-3-ylamino)-3-fluoro-5-methylphenyl)-2-(3,3-diethylazetidin-1-yl)-5-(2,2,2-trifluoroethyl)oxazole-4-carboxamide]: the EC50 is 1000 to 10000 nM. Still for that read-out and setting: the figure for `Cc1cc(NC(=O)c2nc(N3CCCC3)oc2CC(F)(F)F)cc(F)c1NC1C2CCCC1CC2` (stereo not drawn) [Example 194, N-(4-(bicyclo[3.2.1]octan-8-ylamino)-3-fluoro-5-methylphenyl)-2-(pyrrolidin-1-yl)-5-(2,2,2-trifluoroethyl)oxazole-4-carboxamide] is 10000 to 100000 nM; for `O=C(Nc1cc(F)c(N2CCC3OCCC32)c(F)c1)c1nc(N2CCCC2)oc1CC(F)(F)F` (stereo not drawn) [Example 198, N-(3,5-difluoro-4-(hexahydro-4H-furo[3,2-b]pyrrol-4-yl)phenyl)-2-(pyrrolidin-1-yl)-5-(2,2,2-trifluoroethyl)oxazole-4-carboxamide] it is 1000 to 10000 nM. Same read-out and setting: the figure for `O=C(Nc1cc(F)c(N2C3CCCC2CC3)c(F)c1)c1nc(N2CCCOCC2)oc1CC(F)(F)F` [Example 199, N-(4-(8-azabicyclo[3.2.1]octan-8-yl)-3,5-difluorophenyl)-2-(1,4-oxazepan-4-yl)-5-(2,2,2-trifluoroethyl)oxazole-4-carboxamide] is 1000 to 10000 nM; for `CCC1(OC)CN(c2nc(C(=O)Nc3cc(F)c(N4CCC5CC5C4)c(F)c3)c(CC(F)(F)F)o2)C1` (stereo not drawn) [Example 204, N-(4-(3-azabicyclo[4.1.0]heptan-3-yl)-3,5-difluorophenyl)-2-(3-ethyl-3-methoxyazetidin-1-yl)-5-(2,2,2-trifluoroethyl)oxazole-4-carboxamide] it is 10 to 1000 nM. On the same count and under the same terms, next, `CCC1(OC)CN(c2nc(C(=O)Nc3cc(F)c(N4CCC5CCCC54)c(F)c3)c(CC(F)(F)F)o2)C1` (stereo not drawn) [Example 205, N-(3,5-difluoro-4-(hexahydrocyclopenta[b]pyrrol-1(2H)-yl)phenyl)-2-(3-ethyl-3-methoxyazetidin-1-yl)-5-(2,2,2-trifluoroethyl)oxazole-4-carboxamide]: 1000 to 10000 nM. For `CCC1(CC)CN(c2nc(C(=O)Nc3cc(F)c(N4CCC5CC5C4)c(F)c3)c(CC(F)(F)F)o2)C1` (stereo not drawn) [Example 211, N-(4-(3-azabicyclo[4.1.0]heptan-3-yl)-3,5-difluorophenyl)-2-(3,3-diethylazetidin-1-yl)-5-(2,2,2-trifluoroethyl)oxazole-4-carboxamide], the EC50 was 10 to 1000 nM. Still for that read-out and setting: next, `CCC1(CC)CN(c2nc(C(=O)Nc3ccc(N4CCC5CC5C4)c(F)c3)c(CC(F)(F)F)o2)C1` (stereo not drawn) [Example 212, N-(4-(3-azabicyclo[4.1.0]heptan-3-yl)-3-fluorophenyl)-2-(3,3-diethylazetidin-1-yl)-5-(2,2,2-trifluoroethyl)oxazole-4-carboxamide]: 10 to 1000 nM. The same measure, in the same setting: the figure for `CC1(C)CCCN(c2c(F)cc(NC(=O)c3nc(N4CCCC4)oc3CC(F)(F)F)cc2F)C1` [Example 213, N-(4-(3,3-dimethylpiperidin-1-yl)-3,5-difluorophenyl)-2-(pyrrolidin-1-yl)-5-(2,2,2-trifluoroethyl)oxazole-4-carboxamide] is 10 to 1000 nM. Same read-out and setting: next, `O=C(Nc1cc(F)c(N2CCC3CCCC32)c(F)c1)c1nc(N2CCCC2)oc1CC(F)(F)F` (stereo not drawn) [Example 214, N-(3,5-difluoro-4-(hexahydrocyclopenta[b]pyrrol-1(2H)-yl)phenyl)-2-(pyrrolidin-1-yl)-5-(2,2,2-trifluoroethyl)oxazole-4-carboxamide]: 10 to 1000 nM; `CCC1(CC)CN(c2nc(C(=O)Nc3cc(F)c(N4CCCCC4)c(F)c3)c(CC(F)(F)F)o2)C1` [Example 215, 2-(3,3-diethylazetidin-1-yl)-N-(3,5-difluoro-4-(piperidin-1-yl)phenyl)-5-(2,2,2-trifluoroethyl)oxazole-4-carboxamide]: 10 to 1000 nM. With `CCC1(CC)CN(c2nc(C(=O)Nc3ccc(N4CCCCC4)c(F)c3)c(CC(F)(F)F)o2)C1` [Example 216, 2-(3,3-diethylazetidin-1-yl)-N-(3-fluoro-4-(piperidin-1-yl)phenyl)-5-(2,2,2-trifluoroethyl)oxazole-4-carboxamide], the EC50 is 10 to 1000 nM. Same read-out and setting: the figure for `Cc1cc(NC(=O)c2nc(N3CCCC3)oc2CC(F)(F)F)cc(F)c1N(C)C1CC2CC(C2)C1` (stereo not drawn) [Example 217, N-(4-(bicyclo[3.1.1]heptan-3-yl(methyl)amino)-3-fluoro-5-methylphenyl)-2-(pyrrolidin-1-yl)-5-(2,2,2-trifluoroethyl)oxazole-4-carboxamide] is 10000 to 100000 nM; for `O=C(Nc1cc(F)c(CN2CC3CC3C2)c(F)c1)c1nc(N2CCCC2)oc1CC(F)(F)F` (stereo not drawn) [Example 218, N-(4-{3-azabicyclo [3.1.0]hexan-3-ylmethyl}-3,5-difluorophenyl)-2-(pyrrolidin-1-yl)-5-(2,2,2-trifluoroethyl)-1,3-oxazole-4-carboxamide] it is 10000 to 100000 nM. Consider `CCc1oc(N2CC(CC)(CO)C2)nc1C(=O)Nc1cc(F)c(O[C@@H]2C[C@@H]3C[C@@H]3C2)c(Cl)c1` [Example 220, N-(4-(cis-bicyclo[3.1.0]hexan-3-yloxy)-3-chloro-5-fluorophenyl)-5-ethyl-2-(3-ethyl-3-(hydroxymethyl)azetidin-1-yl)oxazole-4-carboxamide], for which the EC50 is 10 to 1000 nM. The same measure, in the same setting: the figure for `CCc1oc(N2CCCC2)nc1C(=O)Nc1cc(F)c(O[C@@H]2C[C@@H]3C[C@@H]3C2)c(Cl)c1` [Example 222, N-(4-(cis-bicyclo[3.1.0]hexan-3-yloxy)-3-chloro-5-fluorophenyl)-5-ethyl-2-(pyrrolidin-1-yl)oxazole-4-carboxamide] is 10 to 1000 nM. On to `CCc1oc(N2CC(C)(OC)C2)nc1C(=O)Nc1cc(C)c(O[C@@H]2C[C@@H]3C[C@@H]3C2)c(F)c1` [Example 226, N-(4-(cis-bicyclo[3.1.0]hexan-3-yloxy)-3-fluoro-5-methylphenyl)-5-ethyl-2-(3-methoxy-3-methylazetidin-1-yl)oxazole-4-carboxamide], for which the EC50 was 10 to 1000 nM.

In the case of `CCc1oc(N2CCCOCC2)nc1C(=O)Nc1cc(F)c(O[C@@H]2C[C@@H]3C[C@@H]3C2)c(F)c1` [Example 231, N-(4-(cis-bicyclo[3.1.0]hexan-3-yloxy)-3,5-difluorophenyl)-5-ethyl-2-(1,4-oxazepan-4-yl)oxazole-4-carboxamide], the EC50 is 1000 to 10000 nM.
